How the values were obtained:
[1] = tested on: genotype 1b HCV replicon in Huh-7 cells; test: HCV replicon luciferase assay; type: cell-based, HCV genotype 1b (human hepatocyte derived cell line Huh-7); conditions: Hepatitis C virus, Huh-7, 72 h, Renilla luciferase, 3 days incubation
Experimental: The cell lines used to evaluate compounds consist of a human hepatocyte derived cell line (Huh-7) that constitutively expresses a genotype 1b HCV replicon containing a Renilla luciferase reporter gene. These cells were maintained in Dulbecco's modified Eagle medium (DMEM) containing 10% FBS, 100 U/mL penicillin/streptomycin and 1.0 mg/mL G418.
To evaluate compound efficacy, titrated compounds were transferred to sterile 384-well tissue culture treated plates, and the plates were seeded with HCV replicon cells (50 μL at a density of 2.4×10^3 cells/well) in DMEM containing 4% FBS (final DMSO concentration at 0.5%). After 3 days incubation at 37° C., cells were analyzed for Renilla Luciferase activity using the EnduRen substrate (Promega cat #E6485) according to the manufacturer's directions. Briefly, the EnduRen substrate was diluted in DMEM and then added to the plates to a final concentration of 7.5 μM. The plates were incubated for at least 1 h at 37° C. then read on a Viewlux Imager (PerkinElmer) using a luminescence program. The 50% effective concentration (EC50) was calculated using the four-parameter logistic formula noted above.

HCV = conditions: extended dosing of the combination regimens with interferon and ribavirin; cited from earlier work
[2] = molecular target: T1, NS5B protein of HCV, genotype 1b (Hepatitis C virus genotype 1b, UniProt Q9WMX2); test: HCV NS5B RdRp enzyme assay; type: biochemical; conditions: 7 nM NS5B enzyme, 4 hours at 30° C.
T1 construct: The protein was expressed with an 18 amino acid C-terminal truncation to enhance the solubility; made in house; host or cells: E. coli BL21(DE3)
Experimental: The cDNA encoding the NS5B protein of HCV, genotype 1b, was cloned into the pET21a expression vector. The protein was expressed with an 18 amino acid C-terminal truncation to enhance the solubility. The E. coli competent cell line BL21(DE3) was used for expression of the protein. Cultures were grown at 37° C. for ˜4 hours until the cultures reached an optical density of 2.0 at 600 nm. The cultures were cooled to 20° C. and induced with 1 mM IPTG. Fresh ampicillin was added to a final concentration of 50 μg/mL and the cells were grown overnight at 20° C.
Cell pellets (3 L) were lysed for purification to yield 15-24 mgs of purified NS5B. […]
Reactions were allowed to proceed for 4 hours at 30° C. and terminated by the addition of 50 mM EDTA (10 μL). After incubating for at least 15 minutes, plates were read on an Amersham LEADseeker multimodality imaging system.
IC50 values for compounds were determined using ten different [I]. IC50 values were calculated from the inhibition using the four-parameter logistic formula y=A+((B−A)/(1+((C/x)^D))), where A and B denote minimal and maximal % inhibition, respectively, C is the IC50, D is hill slope and x represents compound concentration.

T1 sequence (Q9WMX2 2420-2992): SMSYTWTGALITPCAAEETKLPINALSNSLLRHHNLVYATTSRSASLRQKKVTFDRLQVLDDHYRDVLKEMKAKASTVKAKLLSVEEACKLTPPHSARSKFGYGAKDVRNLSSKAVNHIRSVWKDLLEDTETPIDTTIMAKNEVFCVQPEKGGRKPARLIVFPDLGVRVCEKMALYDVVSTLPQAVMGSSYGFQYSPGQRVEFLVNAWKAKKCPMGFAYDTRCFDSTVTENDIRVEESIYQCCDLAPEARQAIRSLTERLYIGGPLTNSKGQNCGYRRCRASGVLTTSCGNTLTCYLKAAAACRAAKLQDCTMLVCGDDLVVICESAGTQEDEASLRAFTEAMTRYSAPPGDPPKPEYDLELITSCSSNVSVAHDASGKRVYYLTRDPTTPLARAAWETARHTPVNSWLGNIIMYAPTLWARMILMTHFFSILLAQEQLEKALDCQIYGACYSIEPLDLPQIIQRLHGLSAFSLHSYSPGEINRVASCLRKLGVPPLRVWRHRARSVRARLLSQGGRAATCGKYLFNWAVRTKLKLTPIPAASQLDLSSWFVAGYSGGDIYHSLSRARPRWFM

| Structure (SMILES) | EC50 [1] | toxicity during extended dosing (HCV) | IC50 [2] |
| --- | --- | --- | --- |
| CCNc1cc2oc(-c3ccc(F)cc3)c(-c3ncc[nH]3)c2cc1-c1ccc(OC)c(C(=O)NC2(c3ncccn3)CC2)c1 [Example 2, 5-(6-(ethylamino)-2-(4-fluorophenyl)-3-(1H-imidazol-2-yl)benzofuran-5-yl)-2-methoxy-N-(1-(pyrimidin-2-yl)cyclopropyl)benzamide] | 7.2 nM | – | – |
| CCN(c1cc2oc(-c3ccc(F)cc3)c(-c3ncc[nH]3)c2cc1-c1ccc(OC)c(C(=O)NC2(c3ncccn3)CC2)c1)S(C)(=O)=O [Example 3, 5-(6-(N-ethylmethylsulfonamido)-2-(4-fluorophenyl)-3-(1H-imidazol-2-yl)benzofuran-5-yl)-2-methoxy-N-(1-(pyrimidin-2-yl)cyclopropyl)benzamide] | 9 nM | – | – |
| CNC(=O)c1c(-c2ccc(F)cc2)oc2cc(N(CCO)S(C)(=O)=O)c(C3CC3)cc12 [HCV-796] | – | hepatic toxicity | – |
| COc1cc(C)c(-c2ccc3oc(-c4ccc(F)cc4)c(-c4ncc[nH]4)c3c2F)cc1C(=O)NC1(c2ncccn2)CC1 [Example 1, 5-(4-fluoro-2-(4-fluorophenyl)-3-(1H-imidazol-2-yl)benzofuran-5-yl)-2-methoxy-4-methyl-N-(1-(pyrimidin-2-yl)cyclopropyl)benzamide] | 30 nM | – | 30 nM |

From US9303020B2, “Compounds for the treatment of hepatitis C” (Bristol-Myers Squibb Company, priority 2012, dated 2016)
